Results taken from patent publication US5108896A, “Simultaneous immunoassay of two analytes using dual enzyme labelled antibodies” (priority 1986, dated 1992).
Read-outs that look alike come from different tables or passages of the source.

Biological target: β-galactosidase (Escherichia coli, UniProt P00722)
Test: Kinetics of β-galactosidase with p-NPBG, with and without diethanolamine
Type: biochemical
Settings: for Km: read-out: Michaelis constant (Km) of β-galactosidase for p-NPBG
Method: β-galactosidase has a pH optimum of 7.4 for p-nitrophenyl-β-D-galactoside (p-NPBG), although in a single assay format using normal substrate concentrations (up to approximately 5 mM), the pH can be raised to 8.6 with only a slight loss (approximately 20%) of activity. […] We have also found, however, that by increasing the concentration of p-NPBG at pH 8.6, even in the presence of about 1M diethanolamine, substantial activity of β-galactosidase can be achieved. Substantial activity of β-galactosidase is also obtained if the same reaction medium is used but with p-NPBG replaced by o-NPBG.

β-galactosidase, sequence (P00722 2-1024): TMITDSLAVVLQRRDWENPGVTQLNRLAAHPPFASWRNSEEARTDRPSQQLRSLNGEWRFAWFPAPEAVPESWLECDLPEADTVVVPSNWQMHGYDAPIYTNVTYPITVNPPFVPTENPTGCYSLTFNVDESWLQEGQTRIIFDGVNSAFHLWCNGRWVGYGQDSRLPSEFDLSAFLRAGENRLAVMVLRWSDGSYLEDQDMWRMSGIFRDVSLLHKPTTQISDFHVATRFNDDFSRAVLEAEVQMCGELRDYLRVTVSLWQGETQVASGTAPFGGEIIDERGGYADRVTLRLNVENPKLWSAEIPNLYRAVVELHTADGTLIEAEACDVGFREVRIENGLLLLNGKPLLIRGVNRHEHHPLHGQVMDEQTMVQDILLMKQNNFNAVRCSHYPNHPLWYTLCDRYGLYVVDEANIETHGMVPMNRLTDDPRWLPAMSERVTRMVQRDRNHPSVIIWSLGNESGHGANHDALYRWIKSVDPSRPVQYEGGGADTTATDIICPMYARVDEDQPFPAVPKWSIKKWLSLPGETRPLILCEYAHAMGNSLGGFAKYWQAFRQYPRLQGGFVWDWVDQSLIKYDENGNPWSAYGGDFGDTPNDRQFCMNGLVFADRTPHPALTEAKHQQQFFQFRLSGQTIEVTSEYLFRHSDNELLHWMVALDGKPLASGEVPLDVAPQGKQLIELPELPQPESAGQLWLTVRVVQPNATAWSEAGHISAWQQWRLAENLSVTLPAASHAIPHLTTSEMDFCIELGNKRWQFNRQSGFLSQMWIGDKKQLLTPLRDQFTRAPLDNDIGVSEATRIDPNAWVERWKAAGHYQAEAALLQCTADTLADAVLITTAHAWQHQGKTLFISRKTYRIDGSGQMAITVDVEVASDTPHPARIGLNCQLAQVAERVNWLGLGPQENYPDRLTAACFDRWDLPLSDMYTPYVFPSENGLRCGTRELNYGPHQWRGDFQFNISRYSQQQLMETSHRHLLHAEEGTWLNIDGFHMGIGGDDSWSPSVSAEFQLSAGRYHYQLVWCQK

## OCCNCCO [diethanolamine]
About 1M diethanolamine, pH 8.6, p-NPBG at normal substrate concentrations (up to approximately 5 mM)
  activity of β-galactosidase (inhibition by diethanolamine): almost totally abolished

## O=[N+]([O-])c1ccc(O[C@@H]2O[C@H](CO)[C@H](O)[C@H](O)[C@H]2O)cc1 [p-NPBG, p-nitrophenyl-β-D-galactoside]
In the presence of 1M diethanolamine (competitive inhibition)
  Km: 21 mM
Without diethanolamine
  Km: 0.066 mM
